Read-outs that look alike come from different tables or passages of the source.

This is an account of results in US20050227999A1, “Diarylamine derivatives as calcium channel blockers” (NeuroMed Technologies Inc., priority 2004, published 2005).

The target of experiment [1] is T1, rat brain N-type calcium channel subunits (α1B+α2δ+β1b cDNA subunits) (Rattus norvegicus, UniProt Q02294).
T1 construct: expressed in transfected cells; host or cells: HEK 293
In words: N-type calcium channel block, whole cell patch clamp in transfected HEK 293 cells. Type of experiment: cell-based. The following applies: holding potential −80 mV to +10 mV. How it is done:
N-type calcium channel blocking activity was assayed in human embryonic kidney cells, HEK 293, stably transfected with the rat brain N-type calcium channel subunits (α1B+α2δ+β1b cDNA subunits). Alternatively, N-type calcium channels (α1B+α2δ+β1b cDNA subunits), L-type channels (α1C+δ+β1b cDNA subunits) and P/Q-type channels (α1A+α2δ+β1b cDNA subunits) were transiently expressed in HEK 293 cells. Briefly, cells were cultured in Dulbecco's modified eagle medium (DMEM) supplemented with 10% fetal bovine serum, 200 U/ml penicillin and 0.2 mg/ml streptomycin at 37° C. with 5% CO2. At 85% confluency cells were split with 0.25% trypsin/l mM EDTA and plated at 10% confluency on glass coverslips. At 12 hours the medium was replaced and the cells transiently transfected using a standard calcium phosphate protocol and the appropriate calcium channel cDNA's. Fresh DMEM was supplied and the cells transferred to 28° C./5% CO2. Cells were incubated for 1 to 2 days before cell recording.
Whole cell patch clamp experiments were performed using an Axopatch 200B amplifier (Axon Instruments, Burlingame, Calif.) linked to a personal computer equipped with PCLAMP software. The external and internal recording solutions contained, respectively, 5 mM BaCl2, 10 mM MgCl2, 10 mM HEPES, 40 mM TEACl, 10 mM glucose, 87.5 mM CsCl (pH 7.2) and 108 mM CsMS, 4 mM MgCl2, 9 mM EGTA, 9 mM HEPES (pH 7.2). Currents were typically elicited from a holding potential of −80 mV to +10 mV using Clampex software (Axon Instruments). Typically, currents were first elicited with low frequency stimulation (0.067 Hz) and allowed to stabilize prior to application of the compounds. The compounds were then applied during the low frequency pulse trains for two to three minutes to assess tonic block, and subsequently the pulse frequency was increased to 0.2 Hz to assess frequency dependent block. Data were analyzed using Clampfit (Axon Instruments) and SigmaPlot 4.0 (Jandel Scientific). […]

For experiment [2], the target named is T2, human α1G T-type channels (Homo sapiens, UniProt O43497).
T2 construct: expressed in transfected cells
T2 sequence (O43497 whole entry): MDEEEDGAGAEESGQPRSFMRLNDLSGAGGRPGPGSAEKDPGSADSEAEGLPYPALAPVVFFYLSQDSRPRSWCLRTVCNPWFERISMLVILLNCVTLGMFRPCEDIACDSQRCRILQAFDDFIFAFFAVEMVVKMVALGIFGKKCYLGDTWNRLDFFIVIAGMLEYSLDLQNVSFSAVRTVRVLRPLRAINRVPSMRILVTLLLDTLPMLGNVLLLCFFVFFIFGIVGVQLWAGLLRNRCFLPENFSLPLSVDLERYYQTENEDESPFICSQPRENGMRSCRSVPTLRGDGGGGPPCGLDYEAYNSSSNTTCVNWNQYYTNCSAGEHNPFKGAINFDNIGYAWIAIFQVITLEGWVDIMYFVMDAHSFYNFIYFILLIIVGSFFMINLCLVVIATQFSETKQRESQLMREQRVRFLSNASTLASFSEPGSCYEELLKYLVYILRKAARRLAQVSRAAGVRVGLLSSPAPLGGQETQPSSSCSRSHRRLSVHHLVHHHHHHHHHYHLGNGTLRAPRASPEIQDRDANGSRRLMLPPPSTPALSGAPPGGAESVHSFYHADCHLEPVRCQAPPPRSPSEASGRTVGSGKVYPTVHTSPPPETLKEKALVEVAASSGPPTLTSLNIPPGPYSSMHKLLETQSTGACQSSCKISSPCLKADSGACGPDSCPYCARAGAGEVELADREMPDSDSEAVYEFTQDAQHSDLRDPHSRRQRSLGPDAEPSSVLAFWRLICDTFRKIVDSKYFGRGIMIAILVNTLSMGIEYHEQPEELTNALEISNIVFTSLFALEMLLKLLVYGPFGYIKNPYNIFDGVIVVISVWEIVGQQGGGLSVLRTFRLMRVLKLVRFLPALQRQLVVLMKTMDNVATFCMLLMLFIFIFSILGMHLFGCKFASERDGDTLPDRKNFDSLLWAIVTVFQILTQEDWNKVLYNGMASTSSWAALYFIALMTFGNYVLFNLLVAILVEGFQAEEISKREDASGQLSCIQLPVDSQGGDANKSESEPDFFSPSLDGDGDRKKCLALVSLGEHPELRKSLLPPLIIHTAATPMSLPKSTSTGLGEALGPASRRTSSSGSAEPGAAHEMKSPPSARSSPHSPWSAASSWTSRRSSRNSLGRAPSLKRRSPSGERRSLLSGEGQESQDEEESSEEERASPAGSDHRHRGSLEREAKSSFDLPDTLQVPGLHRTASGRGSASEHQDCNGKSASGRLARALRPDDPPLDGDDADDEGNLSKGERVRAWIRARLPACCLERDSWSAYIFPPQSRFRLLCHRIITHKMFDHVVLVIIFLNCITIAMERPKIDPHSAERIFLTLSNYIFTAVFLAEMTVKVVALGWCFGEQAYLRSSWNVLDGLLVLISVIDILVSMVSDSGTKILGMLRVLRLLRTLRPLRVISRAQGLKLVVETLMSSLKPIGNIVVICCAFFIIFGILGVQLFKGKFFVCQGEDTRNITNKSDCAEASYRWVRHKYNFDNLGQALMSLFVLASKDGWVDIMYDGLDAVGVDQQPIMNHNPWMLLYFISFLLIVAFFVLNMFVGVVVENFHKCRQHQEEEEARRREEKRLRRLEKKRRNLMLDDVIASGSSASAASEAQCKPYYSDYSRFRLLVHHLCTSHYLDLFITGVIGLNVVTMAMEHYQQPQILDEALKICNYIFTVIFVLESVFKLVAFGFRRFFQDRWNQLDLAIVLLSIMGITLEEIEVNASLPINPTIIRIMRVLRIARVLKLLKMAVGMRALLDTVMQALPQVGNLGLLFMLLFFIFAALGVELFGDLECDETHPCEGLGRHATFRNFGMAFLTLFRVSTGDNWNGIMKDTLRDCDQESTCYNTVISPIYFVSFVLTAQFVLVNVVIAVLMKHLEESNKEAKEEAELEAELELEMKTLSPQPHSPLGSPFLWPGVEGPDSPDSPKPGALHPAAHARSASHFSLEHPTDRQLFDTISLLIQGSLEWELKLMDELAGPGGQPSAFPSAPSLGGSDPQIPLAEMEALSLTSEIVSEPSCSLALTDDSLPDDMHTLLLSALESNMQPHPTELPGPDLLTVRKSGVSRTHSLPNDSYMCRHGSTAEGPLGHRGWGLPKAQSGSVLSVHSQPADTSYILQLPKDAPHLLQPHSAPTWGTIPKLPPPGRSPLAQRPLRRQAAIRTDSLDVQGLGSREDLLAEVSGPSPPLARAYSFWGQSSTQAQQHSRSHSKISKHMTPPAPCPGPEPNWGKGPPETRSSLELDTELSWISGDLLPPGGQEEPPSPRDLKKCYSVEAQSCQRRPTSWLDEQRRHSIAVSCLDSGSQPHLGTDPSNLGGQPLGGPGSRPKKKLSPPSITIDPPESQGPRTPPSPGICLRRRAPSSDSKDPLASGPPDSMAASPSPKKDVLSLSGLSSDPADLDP
In words: T-type calcium channel block, patch clamp in HEK cell lines. Type of experiment: cell-based. How it is done:
Standard patch-clamp techniques were employed to identify blockers of T-type currents. Briefly, previously described HEK cell lines stably expressing human α1G T-type channels were used for all the recordings (passage #: 4-20, 37° C., 5% CO2). To obtain T-type currents, plastic dishes containing semi-confluent cells were positioned on the stage of a ZEISS AXIOVERT S100 microscope after replacing the culture medium with external solution (see below). Whole-cell patches were obtained using pipettes (borosilicate glass with filament, O.D.: 1.5 mm, I.D.: 0.86 mm, 10 cm length), fabricated on a SUTTER P-97 puller with resistance values of ˜5 MΩ (see below for internal solution).
In the non-inactivating protocol, the holding potential is set at −110 mV and with a pre-pulse at −100 mV for 1 second prior to the test pulse at 40 mV for 50 ms. […]
Test compounds were dissolved in external solution, 0.1-0.01% DMSO. After ˜10 min rest, they were applied by gravity close to the cell using a WPI microfil tubing. The “non-inactivated” pre-pulse was used to examine the resting block of a compound. The “inactivated” protocol was employed to study voltage-dependent block. However, the initial data shown below were mainly obtained using the non-inactivated protocol only. IC50 values are shown for various compounds of the invention in Table 4.

In the next experiment the test system is rat formalin model. In words: Formalin-induced pain model. Type of experiment: in vivo. To be noted: 30 mg/kg IP, 10 minutes prior to formalin, saline control=100%. How it is done: The effects of intrathecally delivered compounds of the invention on the rat formalin model were measured. The compounds were reconstituted to stock solutions of approximately 10 mg/ml in propylene glycol. Eight Holtzman male rats of 275-375 g size were randomly selected per test article.
The following study groups were used, with test article, vehicle control (propylene glycol) and saline delivered intraperitoneally (IP):
Prior to initiation of drug delivery baseline behavioral and testing data were taken.
On the morning of testing, a small metal band (0.5 g) was loosely placed around the right hind paw. The rat was placed in a cylindrical Plexiglas chamber for adaptation a minimum of 30 minutes. Test Article or Vehicle Control Article was administered 10 minutes prior to formalin injection (50 μl of 5% formalin) into the dorsal surface of the right hindpaw of the rat. The animal was then placed into the chamber of the automated formalin apparatus where movement of the formalin injected paw was monitored and the number of paw flinches tallied by minute over the next 60 minutes (Malmberg, A. B., et al., Anesthesiology (1993) 79:270-281).
Results are presented as Maximum Possible Effect±SEM, where saline control=100%.

The test system of experiment [3] is spinal nerve ligation (SNL) injury. In words: Spinal nerve ligation (SNL) model of neuropathic pain, thermal hyperalgesia. Type of experiment: in vivo. The following applies: rat SNL, 30 mg/kg orally in propylene glycol. From the text: Spinal nerve ligation (SNL) injury was induced using the procedure of Kim and Chung, (Kim and Chung 1992) in male Sprague-Dawley rats (Harlan; Indianapolis, Ind.) weighing 200 to 300 grams. Anesthesia was induced with 2% halothane in O2 at 2 L/min and maintained with 0.5% halothane in O2. After surgical preparation of the rats and exposure of the dorsal vertebral column from L4 to S2, the L5 and L6 spinal nerves were tightly ligated distal to the dorsal root ganglion using 4-0 silk suture. The incision was closed, and the animals were allowed to recover for 5 days. […] Sham control rats underwent the same operation and handling as the experimental animals, but without SNL.
The method of Hargreaves and colleagues (Hargreaves, et al., 1988) was employed to access paw-withdrawal latency to a thermal nociceptive stimulus. Rats were allowed to acclimate within a plexiglas enclosure on a clear glass plate maintained at 30° C. A radiant heat source (i.e., high intensity projector lamp) was activated with a timer and focused onto the plantar surface of the affected paw of nerve-injured or carrageenan-injected rats. Paw-withdrawal latency was determined by a photocell that halted both lamp and timer when the paw was withdrawn. The latency to withdrawal of the paw from the radiant heat source was determined prior to carrageenan or […], 3 hours after carrageenan or 7 days after L5/L6 SNL but before drug and after drug ministration. A maximal cut-off of 40 seconds was Employed to prevent tissue damage. Paw withdrawal latencies were thus determined to the Nearest 0.1 second. Reversal of thermal hyperalgesia was indicated by a return of the paw Withdrawal latencies to the pre-treatment baseline latencies (i.e., 21 seconds). Anti nociception Was indicated by a significant (p <0.05) increase in paw withdrawal latency above this baseline. Data were converted to % anti hyperalgesia by the formula: (100qx (test latency−baseline latency)/(cut-off−baseline latency) where cut-off was 21 seconds for determining anti hyperalgesia.
Compound 7 was administered orally in propylene glycol solution at a dose of 30 mg/kg. The percent activity was calculated for thermal hyperalgesia.

Experiment [4] concerns T-type over L-type channels. The following applies: cited from earlier work.
Setting [5] is: low frequency stimulation 0.067 Hz (tonic block), read-out: IC50 @ 0.067 Hz.
Setting [6] is: pulse frequency 0.2 Hz (frequency dependent block), read-out: IC50 @ 0.2 Hz.
The mark [7] stands for this setting: −80 mV (inactivation protocol, voltage-dependent block), read-out: IC50 - 80 mV.
Setting [8] is: −100 mV pre-pulse (non-inactivating protocol, resting block), read-out: IC50 - 100 mV.

Turning to `O=C(CN(c1ccccc1)c1ccccc1)N1CCN(C(c2ccccc2)c2cccc(Cl)c2Cl)CC1` (centres unmarked) [Compound 7, 1-{4-[(2,3-Dichloro-phenyl)-phenyl-methyl]-piperazin-1-yl}-2-diphenylamino-ethanone], the IC50 (in general, the concentration at which inhibition is half-maximal) in experiment [1] (setting [5]) stood at 180 nM; in experiment [1] (setting [6]), 140 nM; in experiment [2] (setting [7]), 1000 nM; in experiment [2] (setting [8]) it was 1000 nM. For the same compound, the “Maximum Possible Effect±SEM, Phase II Total” value in the experiment on rat formalin model is reported as 63 ± 10%. Also, the “Maximum Possible Effect±SEM, Phase IIB” value in the experiment on rat formalin model is 64 ± 11%. In addition, the “Thermal Hyperalgesia (% Activity)” value in experiment [3] (30 min) came out at 38.45 ± 18.52%; in experiment [3] (60 min) it was 78.54 ± 10.74%; in experiment [3] (90 min), 40.21 ± 17.08%; in experiment [3] (120 min), 20.98 ± 10.36%.

With `O=C(CN1CCN(C(c2ccccc2)c2ccc(Cl)cc2)CC1)N(c1ccccc1)c1ccccc1` (centres unmarked) [Compound 19, 2-{4-[(4-Chloro-phenyl)-phenyl-methyl]-piperazin-1-yl}-N,N-diphenyl-acetamide], the IC50 was determined as 190 nM in experiment [1] (setting [5]), 110 nM in experiment [1] (setting [6]), 22 nM in experiment [2] (setting [7]) and 72 nM in experiment [2] (setting [8]).

For `O=C(CN1CCN(C(c2ccccc2)c2cccc(Cl)c2)CC1)N(c1ccccc1)c1ccccc1` (centres unmarked) [Compound 20, 2-{4-[(3-Chloro-phenyl)-phenyl-methyl]-piperazin-1-yl}-N,N-diphenyl-acetamide], the 50% inhibitory concentration (IC50) in experiment [1] (setting [5]) is 340 nM; in experiment [1] (setting [6]), 320 nM; in experiment [2] (setting [7]), 33 nM; in experiment [2] (setting [8]), 114 nM.

On to `O=C(CN1CCN(C(c2ccccc2)c2ccccc2Cl)CC1)N(c1ccccc1)c1ccccc1` (centres unmarked) [Compound 21, 2-{4-[(2-Chloro-phenyl)-phenyl-methyl]-piperazin-1-yl}-N,N-diphenyl-acetamide], for which the IC50 is 124 nM in experiment [1] (setting [5]), 52 nM in experiment [1] (setting [6]), 34 nM in experiment [2] (setting [7]) and 134 nM in experiment [2] (setting [8]).

As to `O=C(CN1CCN(C(c2ccccc2)c2cccc(Cl)c2Cl)CC1)N(c1ccccc1)c1ccccc1` (centres unmarked) [Compound 22, 2-{4-[(2,3-Dichloro-phenyl)-phenyl-methyl]-piperazin-1-yl}-N,N-diphenyl-acetamide], the half-maximal inhibitory concentration (IC50) in experiment [1] (setting [5]) turned out to be 300 nM; in experiment [1] (setting [6]), 240 nM; in experiment [2] (setting [7]), 16 nM; in experiment [2] (setting [8]), 81 nM.

For the compound `CN1CCC(CN2CCN(CC(=O)N(c3ccccc3)c3ccccc3)CC2)CC1` [Compound 25, 2-[4-(1-Methyl-piperidin-4-ylmethyl)-piperazin-1-yl]-N,N-diphenyl-acetamide], the 50% inhibitory concentration (IC50) was found to be 460 nM in experiment [1] (setting [5]), 460 nM in experiment [1] (setting [6]), 3700 nM in experiment [2] (setting [7]) and 5700 nM in experiment [2] (setting [8]).

`CN(C)CCCN1CCN(CC(=O)N(c2ccccc2)c2ccccc2)CC1` [Compound 26, 2-[4-(3-Dimethylamino-propyl)-piperazin-1-yl]-N,N-diphenyl-acetamide]: the IC50 in experiment [1] (setting [5]) amounted to 350 nM; in experiment [1] (setting [6]), 340 nM; in experiment [2] (setting [7]), 1000 nM. For the same compound, the “IC50 - 100 mV” value in experiment [2] (−100 mV pre-pulse (non-inactivating protocol, resting block)) is on record as “no effect”.

Consider `COCC(=O)O[C@]1(CCN(C)CCCc2nc3ccccc3[nH]2)CCc2cc(F)ccc2[C@@H]1C(C)C` [Mibefradil], for which, in experiment [4], the “selective for T-type over L-type channels” value is on record as 10-30 fold.
